In patent US6867226B2, “Serotonin 5-HT3 receptor partial activator” (Meiji Seika Kaisha, Ltd., priority 1996, dated 2005):

How the values were obtained:
serotonin 5-HT3 receptor [1] = biological target: T1, serotonin 5-HT3 receptor (Cavia porcellus, UniProt O70212); assay: Serotonin 5-HT3 receptor antagonism, inhibition of 5-HT-induced contraction of guinea pig ileum longitudinal muscle; format: cell-based; details: inhibition ratio of contraction by 10 μM serotonin 5-HT after treatment with test compound 10 μM; Hartley guinea pig ileum
T1 construct: Longitudinal muscle samples of about 20 mm were prepared from the ileum of Hartley male guinea pigs; from tissue; host or cells: guinea pig (Hartley, male) ileum longitudinal muscle
T1 sequence (O70212 20-490): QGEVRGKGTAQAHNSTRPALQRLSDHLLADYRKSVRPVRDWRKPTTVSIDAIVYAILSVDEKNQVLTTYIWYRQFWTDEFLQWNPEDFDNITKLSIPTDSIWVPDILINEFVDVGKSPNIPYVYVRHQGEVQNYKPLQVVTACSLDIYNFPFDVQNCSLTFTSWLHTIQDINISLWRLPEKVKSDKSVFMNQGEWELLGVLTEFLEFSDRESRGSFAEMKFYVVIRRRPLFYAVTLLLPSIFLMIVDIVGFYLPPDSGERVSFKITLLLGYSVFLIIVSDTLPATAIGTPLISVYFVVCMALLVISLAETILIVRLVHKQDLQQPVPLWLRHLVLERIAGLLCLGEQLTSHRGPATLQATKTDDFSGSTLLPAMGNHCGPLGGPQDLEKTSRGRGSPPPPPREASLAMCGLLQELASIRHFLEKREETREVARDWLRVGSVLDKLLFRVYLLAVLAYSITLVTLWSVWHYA
Method: (§1) Of the novel and known benzoxazole compounds according to the present invention, typical compounds and the compounds disclosed in JP-A-6-345744, namely 5-methoxy-2-(4-methyl-1-piperazinyl)benzoxazole (A) and 2-(4-methyl-1-piperazinyl)naphtho[2,3-d]oxazole (B), were measured for their serotonin 5-HT3 receptor antagonism and serotonin 5-HT3 receptor activating action by the following method, with the results shown in Table 1. Test compounds of the present invention are shown by the Inventive Example numbers.
(§2) Longitudinal muscle samples of about 20 mm were prepared from the ileum of Hartley male guinea pigs (500 to 800 g). Each of the thus prepared samples was hung down in a Magnus tube with a resting tension of about 0.5 g to measure the isometric contraction reaction. Serotonin 5-HT was applied with a concentration of from 0.1 to 30 μM to the sample which has been subjected twice in advance to 1 hour of treatment with 0.3 μM serotonin 5-HT to effect desensitization of serotonin 5-HT4 receptor.
The i.a. value was expressed as the ratio of the maximum reaction of each compound when the maximum contraction reaction obtained by 10 μM of serotonin 5-HT was defined as 1. The pD2 value was. expressed as the negative logarithmic value of concentration (molar concentration) by which 50% of the maximum contraction reaction of each test compound can be obtained. […]

serotonin 5-HT3 receptor [2] = biological target: T1, serotonin 5-HT3 receptor; assay: 5-HT3 receptor activating action test, isometric contraction of guinea pig ileum longitudinal muscle; format: cell-based; details: for serotonin 5-HT3 receptor activating action (in words): guinea pig ileum contraction, summary of Table 1; for EC50: negative logarithm of molar concentration giving 50% of the compound's maximum contraction, read-out: Activation Action pD2 (converted); for EC50 / Activation Action i.a.: guinea pig ileum; for Activation Action i.a.: ratio of maximum reaction of compound to maximum contraction by 10 μM serotonin 5-HT defined as 1, 5-HT4 receptor desensitized
Method: 5-HT3 Receptor Activating Action Test
as §1, §2
The i.a. value was expressed as the ratio of the maximum reaction of each compound when the maximum contraction reaction obtained by 10 μM of serotonin 5-HT was defined as 1. The pD2 value was. expressed as the negative logarithmic value of concentration (molar concentration) by which 50% of the maximum contraction reaction of each test compound can be obtained. Also, antagonism of each test compound against the serotonin 5-HT3 receptor was calculated as the inhibition ratio of the contraction obtained by applying 10 μM of serotonin 5-HT (manufactured by Sigma) to a sample which has been treated with […] of each test sample to the contraction obtained by applying 10 μM of serotonin 5-HT to the sample before treatment.

mice = assay: Toxicity test, oral administration to mice; format: in vivo; details: dose of 300 mg/kg, dissolved in water, five-week-old male mice (5 animals)

Row | EC50 (serotonin 5-HT3 receptor [2]) [nM] | SMILES | inhibition at 10 µM (serotonin 5-HT3 receptor [1]) [%] | serotonin 5-HT3 receptor activating action (in words) (serotonin 5-HT3 receptor [2]) | Activation Action i.a. (serotonin 5-HT3 receptor [2]) | mortality (mice)
1 | – | COc1ccc2oc(N3CCN(C)CC3)nc2c1 [A, 5-methoxy-2-(4-methyl-1-piperazinyl)benzoxazole, reference compound] | 34 | does not have serotonin 5-HT3 receptor activating action | – | –
2 | 3980 | CN1CCN(c2nc3cc4ccccc4cc3o2)CC1 [B, 2-(4-methyl-1-piperazinyl)naphtho[2,3-d]oxazole, reference compound] | 85 | weak in comparison with the compounds of the present invention | 0.45 | –
3 | 224 | C=CC[N+]1(C)CCN(c2nc3cc(Cl)ccc3o2)CC1 [Example 2] | 90 | – | 0.57 | –
4 | 316 | C=CC[N+]1(C)CCN(c2nc3cc(Cl)c(N)cc3o2)CC1.[Br-] [Example 7, 1-Allyl-1-methyl-4-(6-amino-5-chlorobenzoxazol-2-yl)piperazinium bromide] | 67 | – | 0.94 | –
5 | – | c1ccc2oc(N3CCNCC3)nc2c1 [Example 14, 2-(1-Piperazinyl)benzoxazole] | 75 | – | – | –
6 | 501 | CN1CCN(c2nc3c(ccc4ccccc43)o2)CC1 [Example 21, 2-(4-Methyl-1-piperazinyl)naphtho[1,2-d]oxazole] | 85 | – | 0.26 | –
7 | 708 | C=CC[N+]1(C)CCN(c2nc3cc(C)ccc3o2)CC1.[Br-] [Example 25, 1-Allyl-1-methyl-4-(5-methylbenzoxazol-2-yl)piperazinium bromide] | 86 | – | 0.79 | –
8 | – | C=CC[N+]1(C)CCN(c2nc3cccc(C)c3o2)CC1.[Br-] [Example 28, 1-Allyl-1-methyl-4-(7-methylbenzoxazol-2-yl)piperazinium bromide] | – | – | – | No mortal case
9 | 63.1 | Cc1cc(C)c2oc(N3CCCN(C)CC3)nc2c1 [Example 36, 5,7-Dimethyl-2-(4-methyl-1-homopiperazinyl)benzoxazole] | 96 | – | 0.28 | –
10 | 20 | Cc1cc(Cl)cc2nc(N3CCCN(C)CC3)oc12 [Example 37, 5-Chloro-7-methyl-2-(4-methyl-1-homopiperazinyl)benzoxazole] | 98 | – | 0.15 | –
11 | 79.4 | CN1CCCN(c2nc3c(ccc4ccccc43)o2)CC1 [Example 40, 2-(4-Methyl-1-homopiperazinyl)naphtho[1,2-d]oxazole] | 89 | – | 0.21 | –

Row | SMILES | EC50 (serotonin 5-HT3 receptor [2]) [nM] | inhibition at 10 µM (serotonin 5-HT3 receptor [1]) [%] | serotonin 5-HT3 receptor activating action (in words) (serotonin 5-HT3 receptor [2]) | Activation Action i.a. (serotonin 5-HT3 receptor [2]) | mortality (mice)
12 | CN1CCN(c2nc3cc(Cl)ccc3o2)CC1 [Example 1, 5-Chloro-2-(4-methyl-1-piperazinyl)benzoxazole] | 398 | 92 | – | 0.55 | –
13 | CN1CCN(c2nc3cc(Cl)c(N)cc3o2)CC1 [Example 5, 6-Amino-5-chloro-2-(4-methyl-1-piperazinyl)benzoxazole] | 676 | 95 | – | 0.59 | –
14 | Nc1cc2oc(N3CCNCC3)nc2cc1Cl [Example 10, 6-Amino-5-chloro-2-(1-piperazinyl)benzoxazole] | 676 | 88 | – | 0.69 | –
15 | Cc1cc(C)c2oc(N3CCNCC3)nc2c1 [Example 13, 5,7-Dimethyl-2-(1-piperazinyl)benzoxazole] | 100 | 100 | – | 0.18 | No mortal case
16 | Cc1ccc2oc(C3CCNCC3)nc2c1 [Example 16, 2-(4-Piperidyl)-5-methylbenzoxazole] | 617 | 82 | – | 0.24 | –
17 | Cc1cc(Cl)cc2nc(N3CCN(C)CC3)oc12 [Example 31, 5-Chloro-7-methyl-2-(4-methyl-1-piperazinyl)benzoxazole] | 200 | 85 | – | 0.24 | –
